Source: patent US8178506B2, “Oligomeric compounds and compositions for use in modulation of small non-coding RNAs” (Regulus Therapeutics Inc., priority 2003, dated 2012)
Values joined by “and” are separate entries in the source; they are usually repeats but may differ in a detail not shown here. Equal values may be shown once. In the oligonucleotide strings, read from the 5' end, every base follows the letter of its sugar. An asterisk marks phosphorothioate; unmarked linkages are phosphodiester. Other units and linkages are bracketed, terminal groups are in braces. A string of capitals states the bases alone. e = 2'-O-(2-methoxyethyl) (MOE); [5mC] = 5-methylcytosine

What was measured:
IGFBP-1 = IGFBP-1 mRNA expression in HepG2 cells; type: cell-based, human; settings: for IGFBP-1 (% UTC): HepG2, 100 nM oligomeric compound; for IGFBP1 mRNA: HepG2 cells, four hours, UTC = 100; for IGFBP1 mRNA expression: Experiment 2, insulin treated: HepG2 cells transfected with oligomeric compound, 1 nM insulin for four hours, UTC + 1 nM insulin = 100
HeLa cells = assay: Cell cycle assay in HeLa cells; type: cell-based, human; settings: HeLa cells
[1] = Experiment 1, basal (no insulin)
[2] = Experiment 2, 1 nM insulin treated
[3] = 150 nM oligomeric compound, 24 hours, relative to untreated control (UTC = 100)
[4] = 150 nM oligomeric compound, 48 hours after treatment, relative to untreated control (UTC=100)
[5] = 25 nM, 48 hours, percentage of cells in phase, average of replicates
[6] = 50 nM, 48 hours, percentage of cells in phase, average of replicates
[7] = 100 nM, 48 hours, percentage of cells in phase, average of replicates
[8] = 150 nM, 48 hours, relative to untreated control
[9] = 150 nM, 48 hours, percentage of cells in phase, average of replicates

## 327878 (antisense e[5mC]*eT*eA*eG*eT*eG*eG*eT*e[5mC]*e[5mC]*eT*eA*eA*eA*e[5mC]*eA*eT*eT*eT*e[5mC]*eA*e[5mC]) [compound 327878]
IGFBP-1; [1]
  IGFBP-1 (% UTC): 162 % UTC
IGFBP-1; [2]
  IGFBP-1 (% UTC): 185 % UTC
HeLa cells; [3]
  % cells aneuploid: 73%
  % cells in cell cycle phase G1: 96%
  % cells in cell cycle phase G2/M: 122%
  % cells in cell cycle phase S: 94%
  % cells in cell cycle phase subG1: 124%
HeLa cells; [4]
  % cells in cell cycle phase: G1: 89%
  % cells in cell cycle phase: G2/M: 114%
  % cells in cell cycle phase: S: 119%
  % cells in cell cycle phase: aneuploid: 92%
  % cells in cell cycle phase: subG1: 50%

## 327885 (antisense eA*e[5mC]*eT*eA*e[5mC]*e[5mC]*eT*eG*e[5mC]*eA*e[5mC]*eT*eG*eT*eA*eA*eG*e[5mC]*eA*e[5mC]*eT*eT*eT*eG) [compound 327885]
IGFBP-1; [1]
  IGFBP1 mRNA: 161
HeLa cells; [3]
  % cells aneuploid: 55%
  % cells in cell cycle phase G1: 129%
  % cells in cell cycle phase G2/M: 121%
  % cells in cell cycle phase S: 63%
  % cells in cell cycle phase subG1: 151%
HeLa cells; [4]
  % cells in cell cycle phase: G1: 78%
  % cells in cell cycle phase: G2/M: 133%
  % cells in cell cycle phase: S: 129%
  % cells in cell cycle phase: aneuploid: 76%
  % cells in cell cycle phase: subG1: 456%

## 327889 (antisense eG*eT*eG*eG*eT*eA*eA*eT*e[5mC]*e[5mC]*e[5mC]*eT*eG*eG*e[5mC]*eA*eA*eT*eG*eT*eG*eA*eT) [compound 327889]
IGFBP-1; [1]
  IGFBP-1 (% UTC): 56 % UTC
IGFBP-1; [2]
  IGFBP-1 (% UTC): 73 % UTC
HeLa cells; [3]
  % cells aneuploid: 82%
  % cells in cell cycle phase G1: 104%
  % cells in cell cycle phase G2/M: 87%
  % cells in cell cycle phase S: 102%
  % cells in cell cycle phase subG1: 122%
HeLa cells; [4]
  % cells in cell cycle phase: G1: 78%
  % cells in cell cycle phase: G2/M: 130%
  % cells in cell cycle phase: S: 137%
  % cells in cell cycle phase: aneuploid: 101%
  % cells in cell cycle phase: subG1: 133%

## 327892 (antisense eA*e[5mC]*eT*eT*eT*e[5mC]*eG*eG*eT*eT*eA*eT*e[5mC]*eT*eA*eG*e[5mC]*eT*eT*eT*eA) [compound 327892]
IGFBP-1; [1]
  IGFBP-1 (% UTC): 108 % UTC
IGFBP-1; [2]
  IGFBP-1 (% UTC): 139 % UTC
HeLa cells; [3]
  % cells aneuploid: 80%
  % cells in cell cycle phase G1: 86%
  % cells in cell cycle phase G2/M: 103%
  % cells in cell cycle phase S: 111%
  % cells in cell cycle phase subG1: 153%
HeLa cells; [4]
  % cells in cell cycle phase: G1: 74%
  % cells in cell cycle phase: G2/M: 129%
  % cells in cell cycle phase: S: 150%
  % cells in cell cycle phase: aneuploid: 79%
  % cells in cell cycle phase: subG1: 121%

## 327897 (antisense eA*e[5mC]*eA*eG*eG*e[5mC]*e[5mC]*eG*eG*eG*eA*e[5mC]*eA*eA*eG*eT*eG*e[5mC]*eA*eA*eT*eA) [compound 327897]
IGFBP-1
  IGFBP1 mRNA expression: 243
IGFBP-1; [1]
  IGFBP1 mRNA: 163
HeLa cells; [3]
  % cells aneuploid: 69% and 54%
  % cells in cell cycle phase G1: 114% and 128%
  % cells in cell cycle phase G2/M: 115% and 100%
  % cells in cell cycle phase S: 80% and 74%
  % cells in cell cycle phase subG1: 143% and 180%
HeLa cells; [4]
  % cells in cell cycle phase: G1: 100% and 94%
  % cells in cell cycle phase: G2/M: 95% and 105%
  % cells in cell cycle phase: S: 103% and 114%
  % cells in cell cycle phase: aneuploid: 84% and 63%
  % cells in cell cycle phase: subG1: 134% and 125%

## 327901 (antisense eT*eG*eA*eG*e[5mC]*eT*eA*e[5mC]*eA*eG*eT*eG*e[5mC]*eT*eT*e[5mC]*eA*eT*e[5mC]*eT*e[5mC]*eA) [compound 327901]
IGFBP-1; [1]
  IGFBP-1 (% UTC): 133 % UTC
IGFBP-1; [2]
  IGFBP-1 (% UTC): 135 % UTC
HeLa cells; [3]
  % cells aneuploid: 90%
  % cells in cell cycle phase G1: 101%
  % cells in cell cycle phase G2/M: 110%
  % cells in cell cycle phase S: 94%
  % cells in cell cycle phase subG1: 108%
HeLa cells; [4]
  % cells in cell cycle phase: G1: 98%
  % cells in cell cycle phase: G2/M: 103%
  % cells in cell cycle phase: S: 104%
  % cells in cell cycle phase: aneuploid: 104%
  % cells in cell cycle phase: subG1: 93%

## 327903 (antisense eA*eA*e[5mC]*eT*eA*eT*eA*e[5mC]*eA*eA*e[5mC]*e[5mC]*eT*eA*e[5mC]*eT*eA*e[5mC]*e[5mC]*eT*e[5mC]*eA) [compound 327903]
IGFBP-1; [1]
  IGFBP-1 (% UTC): 71 % UTC
IGFBP-1; [2]
  IGFBP-1 (% UTC): 81 % UTC
HeLa cells; [3]
  % cells aneuploid: 98%
  % cells in cell cycle phase G1: 92%
  % cells in cell cycle phase G2/M: 106%
  % cells in cell cycle phase S: 104%
  % cells in cell cycle phase subG1: 118%
HeLa cells; [4]
  % cells in cell cycle phase: G1: 102%
  % cells in cell cycle phase: G2/M: 98%
  % cells in cell cycle phase: S: 95%
  % cells in cell cycle phase: aneuploid: 94%
  % cells in cell cycle phase: subG1: 74%

## 327905 (antisense e[5mC]*eA*eG*eA*e[5mC]*eT*e[5mC]*e[5mC]*eG*eG*eT*eG*eG*eA*eA*eT*eG*eA*eA*eG*eG*eA) [compound 327905]
IGFBP-1; [1]
  IGFBP-1 (% UTC): 107 % UTC
IGFBP-1; [2]
  IGFBP-1 (% UTC): 115 % UTC
HeLa cells; 25 nM, 48 hours
  % cells in cell cycle phase: G2/M: 18%
HeLa cells; [5]
  % cells in cell cycle phase: G1: 57%
  % cells in cell cycle phase: S: 24%
  % cells in cell cycle phase: aneuploid: 12%
  % cells in cell cycle phase: subG1: 1.7%
HeLa cells; 50 nM, 48 hours
  % cells in cell cycle phase: G2/M: 20%
HeLa cells; [6]
  % cells in cell cycle phase: G1: 50%
  % cells in cell cycle phase: S: 30%
  % cells in cell cycle phase: aneuploid: 12%
  % cells in cell cycle phase: subG1: 2.1%
HeLa cells; 100 nM, 48 hours
  % cells in cell cycle phase: G2/M: 24%
HeLa cells; [7]
  % cells in cell cycle phase: G1: 46%
  % cells in cell cycle phase: S: 30%
  % cells in cell cycle phase: aneuploid: 14%
  % cells in cell cycle phase: subG1: 2.5%
HeLa cells; [3]
  % cells aneuploid: 50% and 98%
  % cells in cell cycle phase G1: 99% and 94%
  % cells in cell cycle phase G2/M: 129% and 121%
  % cells in cell cycle phase S: 88% and 95%
  % cells in cell cycle phase subG1: 144% and 149%
HeLa cells; [4]
  % cells in cell cycle phase: G1: 48% and 78%
  % cells in cell cycle phase: G2/M: 150% and 122%
  % cells in cell cycle phase: S: 194% and 143%
  % cells in cell cycle phase: aneuploid: 67% and 99%
HeLa cells; 150 nM, 48 hours
  % cells in cell cycle phase: G2/M: 24%
HeLa cells; [8]
  % cells in cell cycle phase G1: 108%
  % cells in cell cycle phase G2/M: 90%
  % cells in cell cycle phase S: 99%
  % cells in cell cycle phase aneuploid: 164%
  % cells in cell cycle phase subG1: 55%
HeLa cells; [9]
  % cells in cell cycle phase: G1: 38%
  % cells in cell cycle phase: S: 38%
  % cells in cell cycle phase: aneuploid: 12%
  % cells in cell cycle phase: subG1: 4.5%

## 327911 (antisense eG*e[5mC]*eT*eA*e[5mC]*e[5mC]*eT*eG*e[5mC]*eA*e[5mC]*eT*eG*eT*eA*eA*eG*e[5mC]*eA*e[5mC]*eT*eT*eT*eT) [compound 327911]
IGFBP-1
  IGFBP1 mRNA expression: 160
IGFBP-1; [1]
  IGFBP1 mRNA: 157
HeLa cells; [3]
  % cells aneuploid: 104%
  % cells in cell cycle phase G1: 130%
  % cells in cell cycle phase G2/M: 122%
  % cells in cell cycle phase S: 62%
  % cells in cell cycle phase subG1: 158%
HeLa cells; [4]
  % cells in cell cycle phase: G1: 99%
  % cells in cell cycle phase: G2/M: 109%
  % cells in cell cycle phase: S: 96%
  % cells in cell cycle phase: aneuploid: 101%
  % cells in cell cycle phase: subG1: 65%

## 327919 (antisense eG*eA*eA*eA*e[5mC]*e[5mC]*e[5mC]*eA*eG*e[5mC]*eA*eG*eA*e[5mC]*eA*eA*eT*eG*eT*eA*eG*e[5mC]*eT) [compound 327919]
IGFBP-1; [1]
  IGFBP-1 (% UTC): 96 % UTC
IGFBP-1; [2]
  IGFBP-1 (% UTC): 154 % UTC
HeLa cells; [3]
  % cells aneuploid: 96%
  % cells in cell cycle phase G1: 92%
  % cells in cell cycle phase G2/M: 109%
  % cells in cell cycle phase S: 103%
  % cells in cell cycle phase subG1: 85%
HeLa cells; [4]
  % cells in cell cycle phase: G1: 80%
  % cells in cell cycle phase: G2/M: 139%
  % cells in cell cycle phase: S: 122%
  % cells in cell cycle phase: aneuploid: 104%
  % cells in cell cycle phase: subG1: 104%

## 327922 (antisense eT*e[5mC]*eA*eG*eT*eT*eT*eT*eG*e[5mC]*eA*eT*eG*eG*eA*eT*eT*eT*eG*e[5mC]*eA*e[5mC]*eA) [compound 327922]
IGFBP-1; [1]
  IGFBP-1 (% UTC): 109 % UTC
IGFBP-1; [2]
  IGFBP-1 (% UTC): 104 % UTC
HeLa cells; [3]
  % cells aneuploid: 104%
  % cells in cell cycle phase G1: 97%
  % cells in cell cycle phase G2/M: 114%
  % cells in cell cycle phase S: 96%
  % cells in cell cycle phase subG1: 131%
HeLa cells; [4]
  % cells in cell cycle phase: G1: 96%
  % cells in cell cycle phase: G2/M: 109%
  % cells in cell cycle phase: S: 105%
  % cells in cell cycle phase: aneuploid: 91%
  % cells in cell cycle phase: subG1: 81%

## 327933 (antisense eA*eA*eG*eG*eG*eA*eT*eT*e[5mC]*e[5mC]*eT*eG*eG*eG*eA*eA*eA*eA*e[5mC]*eT*eG*eG*eA*e[5mC]) [compound 327933]
IGFBP-1; [1]
  IGFBP-1 (% UTC): 125 % UTC
IGFBP-1; [2]
  IGFBP-1 (% UTC): 179 % UTC
HeLa cells; [3]
  % cells aneuploid: 92% and 47%
  % cells in cell cycle phase G1: 102% and 90%
  % cells in cell cycle phase G2/M: 131% and 140%
  % cells in cell cycle phase S: 83% and 91%
  % cells in cell cycle phase subG1: 192% and 190%
HeLa cells; [4]
  % cells in cell cycle phase: G1: 76% and 80%
  % cells in cell cycle phase: G2/M: 138% and 123%
  % cells in cell cycle phase: S: 135% and 133%
  % cells in cell cycle phase: aneuploid: 86% and 75%
